Assay results: PMC10850145, “Hormonal steroids induce multidrug resistance and stress response genes in Neisseria gonorrhoeae by binding to MtrR” (Nature Communications, 2024)
“And” between values parts separate entries of the source, which are not always exact repeats. Equal values may be shown once. Read-outs that look alike come from different tables or passages of the source.

Key:
rpoH-lacZ expression = format: cell-based, Neisseria gonorrhoeae; conditions: for Miller units, single well: individual replicate
N. gonorrhoeae = tested on: N. gonorrhoeae; set-up: method as in PMID 816438; conditions: cited from earlier work
[1] = rpoH-lacZ, ΔmtrR + mtrR D171A in trans, 6.25 µM hormone, single replicate
[2] = rpoH-lacZ, ΔmtrR + mtrR D171A in trans, 12.5 µM hormone, single replicate
[3] = rpoH-lacZ, ΔmtrR + mtrR D171A in trans, 25 µM hormone, single replicate
[4] = rpoH-lacZ, ΔmtrR + mtrR D171A in trans, 50 µM hormone, single replicate
[5] = rpoH-lacZ, ΔmtrR + mtrR WT in trans, 25 µM hormone, single replicate

## C[C@]12CC[C@H]3[C@@H](CCC4=CC(=O)CC[C@@]43C)[C@@H]1CC[C@@H]2O [Testosterone, testosterone]
rpoH-lacZ expression; 50 µM hormone, plate columns 1-6 (WT)
  Miller units, single well: 140 Miller units and 146 Miller units and 175 Miller units
rpoH-lacZ expression; 50 µM hormone, plate columns 1-6 (WT), mean of 4 wells
  Miller units, Mean: 152 Miller units
rpoH-lacZ expression; 50 µM hormone, plate columns 1-6 (WT), mean of plate rows 5-8 (rpoH)
  Miller units, Mean: 152 Miller units
rpoH-lacZ expression; 50 µM hormone, plate columns 1-6 (WT), plate rows 5-8 (rpoH), single well
  Miller units: 140 Miller units and 146 Miller units and 175 Miller units
rpoH-lacZ expression; 50 µM hormone, plate columns 7-12 (second strain not given), plate rows 5-8 (rpoH), single well
  Miller units: 166 Miller units and 158 Miller units and 156 Miller units
rpoH-lacZ expression; 50 µM hormone, plate columns 7-12 (second strain), mean of plate rows 5-8 (rpoH)
  Miller units, Mean: 162 Miller units
rpoH-lacZ expression; 50 µM hormone, plate columns 7-12 (second strain, not WT)
  Miller units, single well: 166 Miller units and 158 Miller units and 156 Miller units
rpoH-lacZ expression; 50 µM hormone, plate columns 7-12 (second strain, not WT), mean of 4 wells
  Miller units, Mean: 162 Miller units
rpoH-lacZ expression; 50 µM, plate column 6, mean of plate rows 5-8, right (rpoH) half of sheet
  Plate-6 (Testosterone) Miller units, Mean: 68 Miller units
rpoH-lacZ expression; 50 µM, plate column 6, plate rows 5-8, single wells, right (rpoH) half of sheet
  Plate-6 (Testosterone) Miller units: 76 Miller units and 71 Miller units and 62 Miller units and 63 Miller units
rpoH-lacZ expression; 50 µM, plate column 12, mean of plate rows 5-8, right (rpoH) half of sheet
  Plate-6 (Testosterone) Miller units, Mean: 57 Miller units
rpoH-lacZ expression; 50 µM, single wells, right (rpoH) half of sheet
  Plate-6 (Testosterone) Miller units: 65 Miller units and 49 Miller units and 56 Miller units and 58 Miller units
rpoH-lacZ expression; complemented (MtrR+) strains, increasing hormone
  induction of rpoH expression: could be induced
rpoH-lacZ expression; loss of MtrR or MtrR-D171A strain
  induction of rpoH expression: abrogated
rpoH-lacZ expression; [1]
  Miller units: 55 Miller units and 65 Miller units
  β-galactosidase activity (Miller units): 55 Miller units and 57 Miller units and 80 Miller units
rpoH-lacZ expression; [2]
  Miller units: 63 Miller units
  β-galactosidase activity (Miller units): 58 Miller units and 54 Miller units and 74 Miller units
rpoH-lacZ expression; [3]
  Miller units: 68 Miller units
  β-galactosidase activity (Miller units): 64 Miller units and 60 Miller units and 67 Miller units
rpoH-lacZ expression; [4]
  Miller units: 56 Miller units
  β-galactosidase activity (Miller units): 65 Miller units and 49 Miller units and 58 Miller units
rpoH-lacZ expression; rpoH-lacZ, ΔmtrR + mtrR WT in trans, 6.25 µM hormone, single replicate
  β-galactosidase activity (Miller units): 39 Miller units and 46 Miller units and 47 Miller units
rpoH-lacZ expression; rpoH-lacZ, ΔmtrR + mtrR WT in trans, 12.5 µM hormone, single replicate
  β-galactosidase activity (Miller units): 51 Miller units and 50 Miller units and 56 Miller units and 52 Miller units
rpoH-lacZ expression; [5]
  Miller units: 55 Miller units
  β-galactosidase activity (Miller units): 68 Miller units and 55 Miller units and 57 Miller units and 70 Miller units
rpoH-lacZ expression; rpoH-lacZ, ΔmtrR + mtrR WT in trans, 50 µM hormone, single replicate
  β-galactosidase activity (Miller units): 76 Miller units and 71 Miller units and 62 Miller units and 63 Miller units
rpoH-lacZ expression; rpoH-lacZ, ΔmtrR strain, 6.25 µM hormone, single replicate
  β-galactosidase activity (Miller units): 119 Miller units and 89 Miller units and 76 Miller units
rpoH-lacZ expression; rpoH-lacZ, ΔmtrR strain, 12.5 µM hormone, single replicate
  β-galactosidase activity (Miller units): 126 Miller units and 100 Miller units and 81 Miller units
rpoH-lacZ expression; rpoH-lacZ, ΔmtrR strain, 25 µM hormone, single replicate
  β-galactosidase activity (Miller units): 155 Miller units and 93 Miller units and 79 Miller units
rpoH-lacZ expression; rpoH-lacZ, ΔmtrR strain, 50 µM hormone, single replicate
  β-galactosidase activity (Miller units): 151 Miller units and 101 Miller units and 93 Miller units
rpoH-lacZ expression; rpoH-lacZ, ΔmtrR, 6.25 µM hormone, single replicate
  Miller units: 100 Miller units
rpoH-lacZ expression; rpoH-lacZ, ΔmtrR, 12.5 µM hormone, single replicate
  Miller units: 101 Miller units
rpoH-lacZ expression; rpoH-lacZ, ΔmtrR, 25 µM hormone, single replicate
  Miller units: 122 Miller units
rpoH-lacZ expression; rpoH-lacZ, ΔmtrR, 50 µM hormone, single replicate
  Miller units: 132 Miller units
rpoH-lacZ expression; strain WT (FA19/pLES94-rpoH), hormone 6.25 µM
  β-galactosidase activity, rpoH-lacZ, Mean: 69 Miller units
rpoH-lacZ expression; strain WT (FA19/pLES94-rpoH), hormone 12.5 µM
  β-galactosidase activity, rpoH-lacZ, Mean: 81 Miller units
rpoH-lacZ expression; strain WT (FA19/pLES94-rpoH), hormone 25 µM
  β-galactosidase activity, rpoH-lacZ, Mean: 98 Miller units
rpoH-lacZ expression; strain WT (FA19/pLES94-rpoH), hormone 50 µM
  β-galactosidase activity, rpoH-lacZ, Mean: 117 Miller units
rpoH-lacZ expression; strain producing MtrR R176E
  activation of rpoH: significantly less activation
rpoH-lacZ expression; strain ΔmtrR (FA19 ∆mtrR/pLES94-rpoH), hormone 6.25 µM
  β-galactosidase activity, rpoH-lacZ, Mean: 96 Miller units
rpoH-lacZ expression; strain ΔmtrR (FA19 ∆mtrR/pLES94-rpoH), hormone 12.5 µM
  β-galactosidase activity, rpoH-lacZ, Mean: 102 Miller units
rpoH-lacZ expression; strain ΔmtrR (FA19 ∆mtrR/pLES94-rpoH), hormone 25 µM
  β-galactosidase activity, rpoH-lacZ, Mean: 112 Miller units
rpoH-lacZ expression; strain ΔmtrR (FA19 ∆mtrR/pLES94-rpoH), hormone 50 µM
  β-galactosidase activity, rpoH-lacZ, Mean: 119 Miller units
rpoH-lacZ expression; strain ΔmtrR + mtrR D171A (pGCC3-mtrR D171A), hormone 6.25 µM
  β-galactosidase activity, rpoH-lacZ, Mean: 64 Miller units
rpoH-lacZ expression; strain ΔmtrR + mtrR D171A (pGCC3-mtrR D171A), hormone 12.5 µM
  β-galactosidase activity, rpoH-lacZ, Mean: 62 Miller units
rpoH-lacZ expression; strain ΔmtrR + mtrR D171A (pGCC3-mtrR D171A), hormone 25 µM
  β-galactosidase activity, rpoH-lacZ, Mean: 65 Miller units
rpoH-lacZ expression; strain ΔmtrR + mtrR D171A (pGCC3-mtrR D171A), hormone 50 µM
  β-galactosidase activity, rpoH-lacZ, Mean: 57 Miller units
rpoH-lacZ expression; strain ΔmtrR + mtrR WT (pGCC3-mtrR), hormone 6.25 µM
  β-galactosidase activity, rpoH-lacZ, Mean: 43 Miller units
rpoH-lacZ expression; strain ΔmtrR + mtrR WT (pGCC3-mtrR), hormone 12.5 µM
  β-galactosidase activity, rpoH-lacZ, Mean: 52 Miller units
rpoH-lacZ expression; strain ΔmtrR + mtrR WT (pGCC3-mtrR), hormone 25 µM
  β-galactosidase activity, rpoH-lacZ, Mean: 63 Miller units
rpoH-lacZ expression; strain ΔmtrR + mtrR WT (pGCC3-mtrR), hormone 50 µM
  β-galactosidase activity, rpoH-lacZ, Mean: 68 Miller units
rpoH-lacZ expression; testosterone 6.25 µM, plate column 3, lower four plate rows
  Plate-6 (Testosterone) Miller units, Mean: 43 Miller units
rpoH-lacZ expression; testosterone 6.25 µM, plate column 9 (second strain set, columns 7-12), lower four plate rows
  Plate-6 (Testosterone) Miller units, Mean: 64 Miller units
rpoH-lacZ expression; testosterone 12.5 µM, plate column 4, lower four plate rows
  Plate-6 (Testosterone) Miller units, Mean: 52 Miller units
rpoH-lacZ expression; testosterone 12.5 µM, plate column 10 (second strain set, columns 7-12), lower four plate rows
  Plate-6 (Testosterone) Miller units, Mean: 62 Miller units
rpoH-lacZ expression; testosterone 25 µM, plate column 5, lower four plate rows
  Plate-6 (Testosterone) Miller units, Mean: 63 Miller units
rpoH-lacZ expression; testosterone 25 µM, plate column 11 (second strain set, columns 7-12), lower four plate rows
  Plate-6 (Testosterone) Miller units, Mean: 65 Miller units
rpoH-lacZ expression; testosterone 50 µM, plate column 6, lower four plate rows
  Plate-6 (Testosterone) Miller units, Mean: 68 Miller units
rpoH-lacZ expression; testosterone 50 µM, plate column 12 (second strain set, columns 7-12), lower four plate rows
  Plate-6 (Testosterone) Miller units, Mean: 57 Miller units
N. gonorrhoeae
  growth inhibition of N. gonorrhoeae: arrest N. gonorrhoeae growth
